Laboratory results as given in patent US20100022483A1, “Substituted Tetracycline Compounds” (Paratek Pharmaceuticals, Inc., priority 2008, published 2010).
≈ marks a conversion by molar mass, not a printed value. Read-outs that look alike come from different tables or passages of the source.

Assays:
[1] = in vitro; type: cell-based; settings: Chinese hamster, Cytotox. CHO-K1
[2] = system: 3T3 fibroblast cells; test: In vitro phototoxicity assay (neutral red; UV light-treated vs dark control plates); type: cell-based; settings: for Photo Toxicity UV Tox50: UV light 50 minutes; for Photo Toxicity Dark Tox50: dark control plate
Method in brief: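 Neutral red viability readout (A535 after EtOH/acetic acid extraction) compares paired plates: one exposed 50 min to UV at 1.6–1.8 mW/cm^2, one held in darkness, both dosed with compound in HBSS and recovered overnight. 3T3 fibroblast cells used; phototoxicity taken as the difference.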

[3] = Mammalian cytotoxicity assay (resazurin), COS-1 cells; type: cell-based; settings: African green monkey, read-out: Cytotox. COS-1
Method in brief: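 Cells seeded overnight at 37° C., 5% CO2, then exposed to serial compound dilutions for 24 hours. Medium replaced with resazurin (0.042 mg/ml in PBS with Ca and Mg) for 2 hours plus 30 minutes dark at room temperature; fluorescence read at ex 535/em 590 nm, IC50 taken as 50% growth inhibition.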

[4] = system: gram positive bacteria; test: In vitro anti-bacterial activity assay (broth dilution MIC), gram positive bacteria; type: cell-based, S. aureus; settings: 18 h
Method in brief: (§1)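 Broth dilution MIC following CLSI M7-A2: compounds serially diluted, log-phase test strains added to final ~5×10^5 CFU/ml, incubated ~18 hours at 35° C in ambient air. Plates read on microplate reader or visually; MIC is lowest concentration inhibiting growth.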

[5] = system: gram negative bacteria; test: In vitro anti-bacterial activity assay (broth dilution MIC), gram negative bacteria; type: cell-based, E. coli
Method in brief: as §1

[6] = Staphylococcus aureus, S. aureus MRSA5, read-out: Median MIC's G+ S. aureus MRSA5
[7] = Staphylococcus aureus, S. aureus RN450, read-out: Median MIC's G+ S. aureus RN450
[8] = Streptococcus pneumoniae, S. pneumoniae 157E-Strep, read-out: Median MIC's G+ S. pneumoniae 157E-Strep
[9] = Escherichia coli, 18 h, E. coli D1 209, read-out: Median MIC's G− E. coli D1 209
[10] = Escherichia coli, 18 h, E. coli MG 1655, read-out: Median MIC's G− E. coli MG 1655
[11] = Escherichia coli, ATCC25922, 18 h, E. coli ATCC 25922, read-out: Median MIC's G− E. coli ATCC 25922
[12] = Pseudomonas aeruginosa, 18 h, P. aeruginosa K201 PAO6609, read-out: Median MIC's G− P. aeruginosa K201 PAO6609

SMILES	IC50 at 24 h [1]	Photo Toxicity UV Tox50 [2]	Photo Toxicity Dark Tox50 [2]	IC50 at 24 h [3]	MIC [4, 6]	MIC [4, 7]	MIC [4, 8]	MIC [5, 9]	MIC [5, 10]	MIC [5, 11]	MIC [5, 12]
CN(C)[C@@H]1C(O)=C(C(N)=O)C(=O)[C@@]2(O)C(O)=C3C(=O)c4c(O)ccc(-c5cccc(C(=O)NCCN6CCCC6)c5)c4C[C@H]3C[C@@H]12 [CR]	> 39.6 µM	>127.91 µM	>127.91 µM	> 39.6 µM	16 µg/mL (≈ 25.4 µM)	1 µg/mL (≈ 1.59 µM)	0.25 µg/mL (≈ 0.396 µM)	64 µg/mL (≈ 101 µM)	16 µg/mL (≈ 25.4 µM)	64 µg/mL (≈ 101 µM)	64 µg/mL (≈ 101 µM)
CN(C)CCNCc1cccc(-c2ccc(O)c3c2C[C@H]2C[C@H]4[C@H](N(C)C)C(O)=C(C(N)=O)C(=O)[C@@]4(O)C(O)=C2C3=O)c1 [CS]	> 140 µM	>139.98 µM	>139.98 µM	> 140 µM	8 µg/mL (≈ 13.5 µM)	0.06 µg/mL (≈ 0.102 µM)	0.06 µg/mL (≈ 0.102 µM)	64 µg/mL (≈ 108 µM)	2 µg/mL (≈ 3.39 µM)	4 µg/mL (≈ 6.77 µM)	64 µg/mL (≈ 108 µM)
CN(C)CCN(C)Cc1cccc(-c2ccc(O)c3c2C[C@H]2C[C@H]4[C@H](N(C)C)C(O)=C(C(N)=O)C(=O)[C@@]4(O)C(O)=C2C3=O)c1 [CT]	> 126 µM	>126.03 µM	>126.03 µM	> 126 µM	4 µg/mL (≈ 6.61 µM)	0.0625 µg/mL (≈ 0.103 µM)	0.06 µg/mL (≈ 0.0992 µM)	4 µg/mL (≈ 6.61 µM)	2 µg/mL (≈ 3.31 µM)	2 µg/mL (≈ 3.31 µM)	64 µg/mL (≈ 106 µM)
CN(C)CCCN(C)Cc1cccc(-c2ccc(O)c3c2C[C@H]2C[C@H]4[C@H](N(C)C)C(O)=C(C(N)=O)C(=O)[C@@]4(O)C(O)=C2C3=O)c1 [CU]	> 124 µM	>123.6 µM	>123.6 µM	> 124 µM	16 µg/mL (≈ 25.9 µM)	0.5 µg/mL (≈ 0.808 µM)	0.125 µg/mL (≈ 0.202 µM)	32 µg/mL (≈ 51.7 µM)	8 µg/mL (≈ 12.9 µM)	8 µg/mL (≈ 12.9 µM)	32 µg/mL (≈ 51.7 µM)
CN(C)CCCCNCc1cccc(-c2ccc(O)c3c2C[C@H]2C[C@H]4[C@H](N(C)C)C(O)=C(C(N)=O)C(=O)[C@@]4(O)C(O)=C2C3=O)c1 [CV]	> 135 µM	>134.59 µM	>134.59 µM	> 135 µM	32 µg/mL (≈ 51.7 µM)	2 µg/mL (≈ 3.23 µM)	4 µg/mL (≈ 6.46 µM)	64 µg/mL (≈ 103 µM)	64 µg/mL (≈ 103 µM)	64 µg/mL (≈ 103 µM)	64 µg/mL (≈ 103 µM)
CN(C)CCCCN(C)Cc1cccc(-c2ccc(O)c3c2C[C@H]2C[C@H]4[C@H](N(C)C)C(O)=C(C(N)=O)C(=O)[C@@]4(O)C(O)=C2C3=O)c1 [CW]	> 132 µM	>132.05 µM	>132.05 µM	> 132 µM	8 µg/mL (≈ 12.6 µM)	0.06 µg/mL (≈ 0.0948 µM)	0.06 µg/mL (≈ 0.0948 µM)	4 µg/mL (≈ 6.32 µM)	2 µg/mL (≈ 3.16 µM)	2 µg/mL (≈ 3.16 µM)	64 µg/mL (≈ 101 µM)
CN(C)CCCNCc1cccc(-c2ccc(O)c3c2C[C@H]2C[C@H]4[C@H](N(C)C)C(O)=C(C(N)=O)C(=O)[C@@]4(O)C(O)=C2C3=O)c1 [CX]	> 137 µM	>137.23 µM	>137.23 µM	> 137 µM	8 µg/mL (≈ 13.2 µM)	0.5 µg/mL (≈ 0.827 µM)	0.25 µg/mL (≈ 0.413 µM)	32 µg/mL (≈ 52.9 µM)	16 µg/mL (≈ 26.5 µM)	16 µg/mL (≈ 26.5 µM)	64 µg/mL (≈ 106 µM)
CN(C)CCNCc1ccc(-c2ccc(O)c3c2C[C@H]2C[C@H]4[C@H](N(C)C)C(O)=C(C(N)=O)C(=O)[C@@]4(O)C(O)=C2C3=O)o1 [CY]	> 142 µM	>142.02 µM	>142.02 µM	> 142 µM	64 µg/mL (≈ 110 µM)	0.25 µg/mL (≈ 0.431 µM)	0.06 µg/mL (≈ 0.103 µM)	64 µg/mL (≈ 110 µM)	2 µg/mL (≈ 3.44 µM)	4 µg/mL (≈ 6.89 µM)	64 µg/mL (≈ 110 µM)
CN(C)CCN(C)Cc1ccc(-c2ccc(O)c3c2C[C@H]2C[C@H]4[C@H](N(C)C)C(O)=C(C(N)=O)C(=O)[C@@]4(O)C(O)=C2C3=O)o1 [CZ]	> 13.8 µM	>137.77 µM	>137.77 µM	> 13.8 µM	16 µg/mL (≈ 26.9 µM)	0.06 µg/mL (≈ 0.101 µM)	0.06 µg/mL (≈ 0.101 µM)	16 µg/mL (≈ 26.9 µM)	4 µg/mL (≈ 6.73 µM)	4 µg/mL (≈ 6.73 µM)	64 µg/mL (≈ 108 µM)
CN1CCN(C(=O)c2cccc(-c3ccc(O)c4c3C[C@H]3C[C@H]5[C@H](N(C)C)C(O)=C(C(N)=O)C(=O)[C@@]5(O)C(O)=C3C4=O)c2)CC1 [C]	> 138 µM	>137.76 µM	>137.76 µM	> 138 µM	64 µg/mL (≈ 104 µM)	0.25 µg/mL (≈ 0.405 µM)	0.06 µg/mL (≈ 0.0973 µM)	64 µg/mL (≈ 104 µM)	32 µg/mL (≈ 51.9 µM)	8 µg/mL (≈ 13 µM)	64 µg/mL (≈ 104 µM)
CN(C)[C@@H]1C(O)=C(C(N)=O)C(=O)[C@@]2(O)C(O)=C3C(=O)c4c(O)ccc(-c5cccc(C(=O)NCC[N+](C)(C)C)c5)c4C[C@H]3C[C@@H]12 [DA]	> 1.23 µM	>123.61 µM	>123.61 µM	> 1.23 µM	64 µg/mL	4 µg/mL	32 µg/mL	64 µg/mL	64 µg/mL	64 µg/mL	64 µg/mL
CN(C)[C@@H]1C(O)=C(C(N)=O)C(=O)[C@@]2(O)C(O)=C3C(=O)c4c(O)ccc(-c5cccc(C(=O)NCCN6CCOCC6)c5)c4CC3CC12 (stereo partly drawn) [DC]	> 13.6 µM	>136.18 µM	>136.18 µM	> 13.6 µM	4 µg/mL (≈ 6.19 µM)	0.125 µg/mL (≈ 0.193 µM)	0.125 µg/mL (≈ 0.193 µM)	64 µg/mL (≈ 99 µM)	8 µg/mL (≈ 12.4 µM)	16 µg/mL (≈ 24.7 µM)	64 µg/mL (≈ 99 µM)
COCCCNC(=O)c1cccc(-c2ccc(O)c3c2CC2CC4[C@H](N(C)C)C(O)=C(C(N)=O)C(=O)[C@@]4(O)C(O)=C2C3=O)c1 (stereo partly drawn) [DD]	> 15.3 µM	>152.62 µM	>152.62 µM	> 15.3 µM	2 µg/mL (≈ 3.3 µM)	0.0625 µg/mL (≈ 0.103 µM)	0.06 µg/mL (≈ 0.0991 µM)	64 µg/mL (≈ 106 µM)	64 µg/mL (≈ 106 µM)	64 µg/mL (≈ 106 µM)	64 µg/mL (≈ 106 µM)
COCCCOCCN(C)Cc1cccc(-c2ccc(O)c3c2C[C@H]2C[C@H]4[C@H](N(C)C)C(O)=C(C(N)=O)C(=O)[C@@]4(O)C(O)=C2C3=O)c1 [DE]	> 20 µM	>200 µM	>200 µM	> 20 µM	2 µg/mL (≈ 3.08 µM)	0.06 µg/mL (≈ 0.0923 µM)	0.06 µg/mL (≈ 0.0923 µM)	2 µg/mL (≈ 3.08 µM)	8 µg/mL (≈ 12.3 µM)	2 µg/mL (≈ 3.08 µM)	64 µg/mL (≈ 98.5 µM)
COCCNC(=O)c1ccc(-c2ccc(O)c3c2C[C@H]2C[C@H]4[C@H](N(C)C)C(O)=C(C(N)=O)C(=O)[C@@]4(O)C(O)=C2C3=O)o1 [DF]	> 20 µM	>200 µM	>200 µM	> 20 µM	16 µg/mL (≈ 27.5 µM)	0.0625 µg/mL (≈ 0.107 µM)	0.06 µg/mL (≈ 0.103 µM)	64 µg/mL (≈ 110 µM)	32 µg/mL (≈ 55 µM)	16 µg/mL (≈ 27.5 µM)	64 µg/mL (≈ 110 µM)
CN(C)[C@@H]1C(O)=C(C(N)=O)C(=O)[C@@]2(O)C(O)=C3C(=O)c4c(O)ccc(-c5cccc(CCCN)c5)c4C[C@H]3C[C@@H]12 [DG]	> 20 µM	64.8 µM	>200 µM	> 20 µM	64 µg/mL (≈ 117 µM)	0.5 µg/mL (≈ 0.913 µM)	0.125 µg/mL (≈ 0.228 µM)	32 µg/mL (≈ 58.4 µM)	32 µg/mL (≈ 58.4 µM)	32 µg/mL (≈ 58.4 µM)	64 µg/mL (≈ 117 µM)
CN(C)CCCNC(=O)c1ccc(-c2ccc(O)c3c2C[C@H]2C[C@H]4[C@H](N(C)C)C(O)=C(C(N)=O)C(=O)[C@@]4(O)C(O)=C2C3=O)o1 [DH]	> 200 µM	>200 µM	>200 µM	> 200 µM	64 µg/mL (≈ 105 µM)	4 µg/mL (≈ 6.57 µM)	2 µg/mL (≈ 3.29 µM)	64 µg/mL (≈ 105 µM)	64 µg/mL (≈ 105 µM)	64 µg/mL (≈ 105 µM)	64 µg/mL (≈ 105 µM)
CN(C)[C@@H]1C(O)=C(C(N)=O)C(=O)[C@@]2(O)C(O)=C3C(=O)c4c(O)ccc(-c5cccc(CCCN6CCCCC6)c5)c4C[C@H]3C[C@@H]12 [DI]	54.1 µM	45.65 µM	>200 µM	59.4 µM	2 µg/mL (≈ 3.25 µM)	0.0625 µg/mL (≈ 0.102 µM)	0.06 µg/mL (≈ 0.0974 µM)	2 µg/mL (≈ 3.25 µM)	4 µg/mL (≈ 6.5 µM)	1 µg/mL (≈ 1.62 µM)	64 µg/mL (≈ 104 µM)
